Where two headings read alike, the source gives them in different places.
Experiments:
Format in all cases: binding
[1] = biological target: T1, HeLa cell extract proteins (Homo sapiens, UniProt Q05639); conditions: protein EEF1A2; HeLa
T1 construct: endogenous in cells; host or cells: HeLa cell extract
T1 sequence (Q05639 1-463): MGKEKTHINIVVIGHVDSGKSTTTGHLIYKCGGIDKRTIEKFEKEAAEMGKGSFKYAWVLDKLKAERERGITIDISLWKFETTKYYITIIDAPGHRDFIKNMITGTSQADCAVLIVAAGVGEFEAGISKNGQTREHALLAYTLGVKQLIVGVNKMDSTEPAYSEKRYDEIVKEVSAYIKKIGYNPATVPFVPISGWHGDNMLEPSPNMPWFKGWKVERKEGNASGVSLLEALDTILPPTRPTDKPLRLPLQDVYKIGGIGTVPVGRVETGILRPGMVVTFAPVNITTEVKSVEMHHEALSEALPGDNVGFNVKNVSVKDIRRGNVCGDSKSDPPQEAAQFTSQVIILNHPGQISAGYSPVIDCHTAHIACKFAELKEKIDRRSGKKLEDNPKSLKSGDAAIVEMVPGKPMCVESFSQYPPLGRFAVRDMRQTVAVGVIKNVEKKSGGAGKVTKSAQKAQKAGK

[2] = biological target: T2, HeLa cell extract proteins (Homo sapiens, UniProt Q9Y5A9); conditions: captured protein YTHDF2; HeLa
T2 construct: endogenous in cells; host or cells: HeLa cell extract
T2 sequence (Q9Y5A9 1-579): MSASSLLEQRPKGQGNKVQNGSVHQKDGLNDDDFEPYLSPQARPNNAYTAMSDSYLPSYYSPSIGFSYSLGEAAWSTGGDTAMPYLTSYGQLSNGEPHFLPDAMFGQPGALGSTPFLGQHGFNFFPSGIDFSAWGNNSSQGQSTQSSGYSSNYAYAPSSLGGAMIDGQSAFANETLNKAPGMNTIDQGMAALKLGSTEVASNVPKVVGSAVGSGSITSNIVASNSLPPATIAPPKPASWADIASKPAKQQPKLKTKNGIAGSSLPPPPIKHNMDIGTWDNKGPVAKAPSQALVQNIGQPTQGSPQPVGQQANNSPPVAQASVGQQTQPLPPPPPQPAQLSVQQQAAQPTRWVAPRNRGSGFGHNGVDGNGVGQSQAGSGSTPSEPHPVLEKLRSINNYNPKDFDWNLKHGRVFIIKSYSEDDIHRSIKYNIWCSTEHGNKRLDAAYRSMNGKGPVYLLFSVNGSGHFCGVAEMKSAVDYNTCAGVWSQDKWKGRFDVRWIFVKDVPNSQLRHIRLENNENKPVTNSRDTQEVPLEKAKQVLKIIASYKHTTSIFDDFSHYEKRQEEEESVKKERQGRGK

[3] = biological target: T3, HeLa cell extract proteins (Homo sapiens, UniProt Q8N0W3); conditions: protein FUK; HeLa
T3 construct: endogenous in cells; host or cells: HeLa cell extract
T3 sequence (Q8N0W3 1-1084): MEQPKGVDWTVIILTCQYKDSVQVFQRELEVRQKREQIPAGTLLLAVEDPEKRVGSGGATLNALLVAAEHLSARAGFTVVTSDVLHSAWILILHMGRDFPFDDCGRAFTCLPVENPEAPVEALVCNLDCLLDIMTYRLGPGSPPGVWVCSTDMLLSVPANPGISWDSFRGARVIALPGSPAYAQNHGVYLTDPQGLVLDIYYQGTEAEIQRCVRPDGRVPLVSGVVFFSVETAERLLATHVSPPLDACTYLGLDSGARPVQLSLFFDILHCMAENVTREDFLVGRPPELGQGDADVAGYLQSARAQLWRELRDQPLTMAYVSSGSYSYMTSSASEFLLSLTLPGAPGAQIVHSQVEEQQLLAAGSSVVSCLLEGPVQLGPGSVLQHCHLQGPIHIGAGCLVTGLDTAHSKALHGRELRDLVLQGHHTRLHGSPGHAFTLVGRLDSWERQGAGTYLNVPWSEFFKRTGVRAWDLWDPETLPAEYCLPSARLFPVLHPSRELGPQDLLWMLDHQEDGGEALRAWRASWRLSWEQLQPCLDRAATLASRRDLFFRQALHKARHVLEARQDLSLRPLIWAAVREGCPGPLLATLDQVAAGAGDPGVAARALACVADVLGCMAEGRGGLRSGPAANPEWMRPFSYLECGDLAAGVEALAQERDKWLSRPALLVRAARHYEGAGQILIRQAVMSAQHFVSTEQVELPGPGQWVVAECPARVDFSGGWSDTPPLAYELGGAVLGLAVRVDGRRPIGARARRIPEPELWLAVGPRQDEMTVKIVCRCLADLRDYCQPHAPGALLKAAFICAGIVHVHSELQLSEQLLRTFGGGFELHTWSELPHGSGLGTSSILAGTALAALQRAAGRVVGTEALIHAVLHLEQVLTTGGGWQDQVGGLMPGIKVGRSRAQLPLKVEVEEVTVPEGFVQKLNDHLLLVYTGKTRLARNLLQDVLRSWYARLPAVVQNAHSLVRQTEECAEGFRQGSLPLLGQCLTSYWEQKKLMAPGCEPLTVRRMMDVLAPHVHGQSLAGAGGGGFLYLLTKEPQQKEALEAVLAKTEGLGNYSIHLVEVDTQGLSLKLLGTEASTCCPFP

[4] = biological target: T4, HeLa cell extract proteins (Homo sapiens, UniProt O75534)
T4 construct: endogenous in cells; host or cells: HeLa cell extract
T4 sequence (O75534 1-798): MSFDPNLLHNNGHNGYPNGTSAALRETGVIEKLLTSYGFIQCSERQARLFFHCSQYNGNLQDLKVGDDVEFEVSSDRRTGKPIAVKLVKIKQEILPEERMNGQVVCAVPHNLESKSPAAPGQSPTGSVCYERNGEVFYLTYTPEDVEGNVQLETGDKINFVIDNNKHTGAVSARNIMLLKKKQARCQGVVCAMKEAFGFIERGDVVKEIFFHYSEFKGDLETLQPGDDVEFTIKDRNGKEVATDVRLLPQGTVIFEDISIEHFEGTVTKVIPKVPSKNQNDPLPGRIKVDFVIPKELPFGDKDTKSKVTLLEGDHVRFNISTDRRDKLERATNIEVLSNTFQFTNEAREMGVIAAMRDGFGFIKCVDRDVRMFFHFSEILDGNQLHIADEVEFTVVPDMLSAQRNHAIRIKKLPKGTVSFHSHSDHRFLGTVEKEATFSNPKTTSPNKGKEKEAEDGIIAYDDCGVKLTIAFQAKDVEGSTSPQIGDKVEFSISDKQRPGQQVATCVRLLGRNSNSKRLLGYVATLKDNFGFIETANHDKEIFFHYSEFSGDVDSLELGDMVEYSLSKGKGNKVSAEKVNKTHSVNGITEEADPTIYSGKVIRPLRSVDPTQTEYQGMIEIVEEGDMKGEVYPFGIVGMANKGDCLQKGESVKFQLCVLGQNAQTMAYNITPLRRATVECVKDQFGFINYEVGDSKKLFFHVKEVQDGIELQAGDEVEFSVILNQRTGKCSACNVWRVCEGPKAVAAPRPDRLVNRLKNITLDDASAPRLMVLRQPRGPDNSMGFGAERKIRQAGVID

Structure (SMILES) | fold changes relative to vehicle control [1] | fold changes relative to vehicle control [2] | fold changes relative to vehicle control [3] | fold changes relative to vehicle control ([4]; HeLa, protein CSDE1) | fold changes relative to vehicle control [4]
Nc1nc2cccc(-c3ccccc3)c2n1Cc1ccc(Cl)c(Cl)c1 [compound 3] | 0.82 | 1.01 | 1.07 |  | 
CCCCCCOc1ccc(Cc2cnc(N)nc2N)cc1 [compound 1] | 1.09 | 0.79 | 0.96 |  | 
NCCCNc1ccc(C(=O)NC(CCC(=O)O)C(=O)O)cc1 (stereo not shown) [compound 7] |  |  |  | 1.05 | 
CCCCCCOc1cccc(Cc2cnc(N)nc2N)c1 [compound 2] | 2.29 | 1.16 | 1.11 |  | 
NCCOCCOCC(=O)Nc1nc2ncc(CNc3ccc(C(=O)NC(CCC(=O)O)C(=O)O)cc3)nc2c(=O)[nH]1 (stereo not shown) [compound 6] |  |  |  | 1.22 | 
Nc1nc2[nH]cc(CCc3ccc(C(=O)N[C@@H](CCC(=O)O)C(=O)O)cc3)c2c(=O)[nH]1 [PTX, pemetrexed] |  |  |  |  | 1.14
Nc1nc2c(c(=O)[nH]1)N(C=O)C(CNc1ccc(C(=O)N[C@@H](CCC(=O)O)C(=O)O)cc1)CN2 (stereo partly shown) [LEU, leucovorin] |  |  |  | 0.96 | 

— article PMC6199744, “Development of Chemical Proteomics for the Folateome and Analysis of the Kinetoplastid Folateome” (ACS Infectious Diseases, 2018)
